Patent US8889876B2, “Histone deacetylase inhibitors and uses thereof” (Jiangsu Hengyi Pharmaceutical Co., Ltd., priority 2008, dated 2014)

Key:
[1] = test system: Jurkat E6-1 human T-cell lymphoma; assay: CCK-8 proliferation inhibition, Jurkat E6-1; format: cell-based; conditions: for inhibition at 10 µM / inhibition at 100 µM: Homo sapiens; for inhibition at 10 µM: Jurkat E6.1, 10 μM; for inhibition at 100 µM: Jurkat E6.1, 100 μM
Protocol: (§1) Detecting the inhibition rate of the compound concentrations of 100 μM and 10 μM to Hut78 T-cell Leukemia cell, Jurkat E6-1 human T-cell lymphoma, PANC-1 human pancreatic cancer cells, A549 human lung cancer cells, K562 human chronic myeloid leukemia cells, Hep3B2.1-7 human liver cancer cells, MDA-MB-435s human breast cancer cells, Colo320 human rectal cancer cells and PC-3 human prostate cancer using CCK-8 method.

[2] = test system: K562 human chronic myeloid leukemia cells; assay: CCK-8 proliferation inhibition, K562; format: cell-based; conditions: for inhibition at 10 µM / inhibition at 100 µM: Homo sapiens; for inhibition at 10 µM: K562, 10 μM; for inhibition at 100 µM: K562, 100 μM
Protocol: as §1

histone deacetylase = assay: in vitro inhibition of histone deacetylase by HDAC inhibitor screening kit (Biovision K340-100); format: biochemical
Protocol: An assay for determining the in vitro inhibition activity of the compound on histone deacetylase is conducted according to the specification of HDAC inhibitor screeing kid (Biovision Company/Catalog #K340-100). […]

[3] = test system: PC-3 human prostate cancer; assay: CCK-8 proliferation inhibition, PC-3; format: cell-based; conditions: CCK-8 method; for inhibition at 10 µM / inhibition at 100 µM: Homo sapiens
Protocol: as §1

[4] = test system: MDA-MB-435s human breast cancer cells; assay: CCK-8 proliferation inhibition, MDA-MB-435s; format: cell-based; conditions: CCK-8 method; for inhibition at 10 µM / inhibition at 100 µM: Homo sapiens, MDA-MB-435S
Protocol: as §1

[5] = test system: A549 human lung cancer cells; assay: CCK-8 proliferation inhibition, A549; format: cell-based; conditions: CCK-8 method; for inhibition at 10 µM / inhibition at 100 µM: Homo sapiens, A549
Protocol: as §1

[6] = test system: Hep3B2.1-7 human liver cancer cells; assay: CCK-8 proliferation inhibition, Hep3B2.1-7; format: cell-based; conditions: CCK-8 method; for inhibition at 10 µM / inhibition at 100 µM: Homo sapiens, Hep3B
Protocol: as §1

[7] = test system: PANC-1 human pancreatic cancer cells; assay: CCK-8 proliferation inhibition, PANC-1; format: cell-based; conditions: for inhibition at 10 µM / inhibition at 100 µM: Homo sapiens; for inhibition at 10 µM: PANC-1, 10 μM; for inhibition at 100 µM: PANC-1, 100 μM
Protocol: as §1

[8] = test system: Hut78 T-cell Leukemia cell; assay: CCK-8 proliferation inhibition, Hut78; format: cell-based; conditions: for inhibition at 10 µM / inhibition at 100 µM: Homo sapiens, read-out: Hut-78 (inhibition %); for inhibition at 10 µM: HuT78, 10 μM; for inhibition at 100 µM: HuT78, 100 μM
Protocol: as §1

[9] = test system: Colo320 human rectal cancer cells; assay: CCK-8 proliferation inhibition, Colo320; format: cell-based; conditions: CCK-8 method; for inhibition at 10 µM / inhibition at 100 µM: Homo sapiens, COLO 320
Protocol: as §1

Row | Structure (SMILES) | Inhibition rate(%) (histone deacetylase; 3.91 μM) | Inhibition rate(%) (histone deacetylase; 62.5 μM) | Inhibition rate(%) (histone deacetylase; 2 mM) | inhibition at 10 µM [1] [%] | inhibition at 100 µM [1] [%] | inhibition at 10 µM [2] [%] | inhibition at 100 µM [2] [%] | inhibition at 10 µM ([3]; compound concentration 10 μM) [%] | inhibition at 100 µM ([3]; compound concentration 100 μM) [%] | inhibition at 10 µM ([4]; compound concentration 10 μM) [%] | inhibition at 100 µM ([4]; compound concentration 100 μM) [%] | inhibition at 10 µM ([5]; compound concentration 10 μM) [%] | inhibition at 100 µM ([5]; compound concentration 100 μM) [%] | inhibition at 10 µM ([6]; compound concentration 10 μM) [%] | inhibition at 100 µM ([6]; compound concentration 100 μM) [%] | inhibition at 10 µM [7] [%] | inhibition at 100 µM [7] [%] | inhibition at 10 µM [8] [%] | inhibition at 100 µM [8] [%] | inhibition at 10 µM ([9]; compound concentration 10 μM) [%] | also measured
1 | COc1cc(COC(=O)NCc2ccc(C(=O)Nc3cccnc3N)cc2)cc(OC)c1OC [V-13, N-(2-amino-3-pyridyl)-4-[(3,4,5-trimethoxybenzyloxyacyl)aminomethyl]benzamide] | 1.9 | 7.8 | 50.0 | 0.9 | 22.8 | -2.8 | 30.3 | 5.1 | 19.3 | -11.9 | 11.8 | 24.6 | 42.3 | 27 | 26.2 | 22.3 | 26.4 | 10.8 | 24 | 4.4 | inhibition at 100 µM ([9]; compound concentration 100 μM): 4.2%
2 | COc1cc(COC(=O)NCc2ccc(C(=O)Nc3ccncc3N)cc2)cc(OC)c1OC [V-14] | 12.0 | 32.9 | 77.2 | 25.3 | 72.8 | 45 | 62.1 | 13.7 | 57.4 | 9.4 | 82.9 | -4.4 | 40.1 | 3.7 | 31.3 | 13 | 19 | 8.1 | 47.5 | 6.4 | inhibition at 100 µM ([9]; compound concentration 100 μM): 23.3%
3 | Nc1ncccc1NC(=O)c1ccc(CNC(=O)/C=C/c2cccnc2)cc1 [V-42, N-(2-amino-3-pyridyl)-4-[(3-pyridylacryloyl)aminomethyl]benzamide] | 11.4 | 40.2 | 82.4 | 62.4 | 93.7 | 27.9 | 67.7 | 81.4 | 89.4 | 24.2 | 89.2 | 56.3 | 88.8 | 21.2 | 58.8 | 20.8 | 50.6 | 28.2 | 55.8 | 26.3 | inhibition at 100 µM ([9]; compound concentration 100 μM): 77%
4 | COc1cc(CCC(=O)NCc2ccc(C(=O)Nc3cccnc3N)cc2)cc(OC)c1OC [V-54, N-(2-amino-3-pyridyl)-4-[3-(3,4,5-methoxyphenyl)propionylaminomethyl]benzamide] | 2.2 | 3.1 | 42.5 | – | – | – | – | – | – | – | – | – | – | – | – | – | – | – | – | – | Jurkat E6-1 (inhibition %) ([1]; 10 μM): 2.9%; Jurkat E6-1 (inhibition %) ([1]; 100 μM): 5.8%; K562 (inhibition %) ([2]; 10 μM): 12.7%; K562 (inhibition %) ([2]; 100 μM): 13.1%; PC-3 (inhibition %) ([3]; compound concentration 10 μM): 5.6%; PC-3 (inhibition %) ([3]; compound concentration 100 μM): 5.9%; 435s(inhibition %) ([4]; compound concentration 10 μM): 14.6%; 435s(inhibition %) ([4]; compound concentration 100 μM): 14.0%; A549 (inhibition %) ([5]; compound concentration 10 μM): 7.5%; A549 (inhibition %) ([5]; compound concentration 100 μM): 12.8%; Hep3B (inhibition %) ([6]; compound concentration 10 μM): 4.2%; Hep3B (inhibition %) ([6]; compound concentration 100 μM): 4.7%; PANC-1 (inhibition %) ([7]; 10 μM): 15.6%; PANC-1 (inhibition %) ([7]; 100 μM): 11.7%; Hut-78 (inhibition %) ([8]; 10 μM): 0.9%; Hut-78 (inhibition %) ([8]; 100 μM): 10.6%; Colo320 (inhibition %) ([9]; compound concentration 10 μM): 6.8%; Colo320 (inhibition %) ([9]; compound concentration 100 μM): 2.7%
5 | COc1cccc(/C=C/C(=O)NCc2ccc(C(=O)Nc3cccnc3N)cc2)c1 [V-91, N-(2-amino-3-pyridyl)-4-[(3-methoxycinnamoyl)aminomethyl]benzamide] | 10.1 | 47.8 | 81.8 | 23.7 | 89.9 | 37.4 | 81.6 | 7.9 | 24.2 | 25.9 | 71.2 | 17.7 | 48.9 | 7.8 | 63.6 | 2.4 | 8.5 | 26.8 | 68.3 | 9.6 | inhibition at 100 µM ([9]; compound concentration 100 μM): 27.6%

The next lines start with results.

Row | Inhibition rate(%) (histone deacetylase; 3.91 μM) | Inhibition rate(%) (histone deacetylase; 62.5 μM) | Inhibition rate(%) (histone deacetylase; 2 mM) | Structure (SMILES) | inhibition at 10 µM [1] [%] | inhibition at 100 µM [1] [%] | inhibition at 10 µM [2] [%] | inhibition at 100 µM [2] [%] | inhibition at 10 µM ([3]; compound concentration 10 μM) [%] | inhibition at 100 µM ([3]; compound concentration 100 μM) [%] | inhibition at 10 µM ([4]; compound concentration 10 μM) [%] | inhibition at 100 µM ([4]; compound concentration 100 μM) [%] | inhibition at 10 µM ([5]; compound concentration 10 μM) [%] | inhibition at 100 µM ([5]; compound concentration 100 μM) [%] | inhibition at 10 µM ([6]; compound concentration 10 μM) [%] | inhibition at 100 µM ([6]; compound concentration 100 μM) [%] | inhibition at 10 µM [7] [%] | inhibition at 100 µM [7] [%] | inhibition at 10 µM [8] [%] | inhibition at 100 µM [8] [%] | inhibition at 10 µM ([9]; compound concentration 10 μM) [%] | also measured
6 | 24.8 | 56.8 | 58.6 | Nc1cnccc1NC(=O)c1ccc(CNC(=O)/C=C/c2ccccc2)cc1 [V-26] | 76.6 | 95.7 | 58.5 | 87.5 | 45.2 | 72.2 | 22.7 | 81.4 | 9.5 | 79.1 | 13.8 | 75.1 | 0.9 | 23.9 | 39.9 | 82.3 | 7.7 | inhibition at 100 µM ([9]; compound concentration 100 μM): 56.3%
7 | 30.4 | 56.8 | 66.0 | Cc1ccc(/C=C/C(=O)NCc2ccc(C(=O)Nc3ccncc3N)cc2)cc1 [V-28] | 84.8 | 89.4 | 64.3 | 92.9 | 48.1 | 75.5 | 25.2 | 88.8 | 17.1 | 96.4 | 23.5 | 60 | -1.7 | 52 | 44.4 | 85.7 | 6.5 | inhibition at 100 µM ([9]; compound concentration 100 μM): 58.8%
8 | 28.2 | 56.9 | 67.5 | COc1ccc(/C=C/C(=O)NCc2ccc(C(=O)Nc3ccncc3N)cc2)cc1 [V-30] | 83.1 | 88.2 | 60.9 | 83.4 | 44.6 | 69 | 18 | 81.4 | 21.8 | 69.9 | 38.3 | 69.2 | 12.3 | 39.4 | 42.3 | 71.8 | 5.4 | inhibition at 100 µM ([9]; compound concentration 100 μM): 40.8%
9 | 24.2 | 55.2 | 76.1 | Nc1cnccc1NC(=O)c1ccc(CNC(=O)/C=C/c2ccc([N+](=O)[O-])cc2)cc1 [V-38] | 76.9 | 95.1 | 54 | 88.2 | 8.7 | 52.6 | 16.6 | 73.6 | 4.2 | 63.7 | 11.7 | 63.5 | 5.1 | 40.8 | 39.6 | 86.9 | -0.2 | inhibition at 100 µM ([9]; compound concentration 100 μM): 44.4%
10 | 24.0 | 56.1 | 65.7 | COc1cccc(/C=C/C(=O)NCc2ccc(C(=O)Nc3ccncc3N)cc2)c1 [V-92] | 87.5 | 95.5 | 68.7 | 91.1 | 41 | 73.8 | 23.7 | 77.7 | 2.2 | 54.2 | 20.2 | 80.5 | 6.3 | 33.3 | 46.2 | 78.5 | 6 | inhibition at 100 µM ([9]; compound concentration 100 μM): 65.5%
